# Data: article PMC7156724, “Potent BRD4 inhibitor suppresses cancer cell-macrophage interaction” (Nature Communications, 2020)
# Where “and” joins values, the source holds several entries; their conditions need not be identical. Identical values can stand only once. Like-named read-outs stand apart in the source and are kept apart here.
# What was measured:
# [1] = In vivo pharmacokinetics study, mouse
# Description: 4–6 weeks old female BALB/c nude mice were used for most experiments, with the exception of 6–8 weeks old female C57BL/6 mice were used for B16F10 experiments, and 6–8 weeks old male BALB/c nude mice and SD rats were used for pharmacokinetic experiments. All animals were purchased from Shanghai SIPPR-Bk Lab Animal Co., Ltd. All animals were housed under a regimen of 12 h light/12 h dark cycles and specific pathogen-free conditions. 5×10^6 NCI-H526, ES-2, MDA-MB231, A2780, A375, B16F10, and TMD-8 cells (0.1 ml) were injected subcutaneously into female nude mice. The melanoma patient-derived xenograft model was derived from a human melanoma sample (BRAF, NARS and NF1 wild type, and p53 mutant) removed from a patient in Xiangya Hospital. Surgically removed tumor fragments were implanted subcutaneously into female NSG mice. When the tumors grew to ~1000 mm^3, they were harvested and cryopreserved or immediately re-implanted for expansion or experiments. Mouse body weight and tumor sizes were measured every 3 days. Once the tumors grew to 150–200 mm^3, mice were treated with the compounds as described in the Figures. 1 × 10^6 A2780 cells (1 ml) were injected into the abdominal cavity of nude mice. Ascitic volume and tumor weight were measured by an electronic balance. All the procedures were evaluated and approved by the Institutional Animal Care and Use Committee of Central South University and Yale University.
# Supplementary Figure 7. Pharmacokinetic profile of NHWD-870 using mouse and rat models.
# (a,b) Plasma concentrations of NHWD-870 in healthy (a) mouse and (b) rat after intravenous (IV, 1.75 mg/kg for mouse and 1 mg/kg for rat) and oral (PO, 5 mg/kg) administration. Values shown on the right panels are mean ± SEM from 3 different animals. (c,d) Mean concentrations of NHWD-870 in the lungs (c) and tumors (d) of H526 xenograft model at the indicated hours after oral administration of 3 mg/kg NHWD-870 and BMS-98615821 on day 21. These mice were administrated the indicated drug daily for 21 days. Data are represented as mean ± SEM of 3 independent experiments. Source data are provided as a Source Data file. […]
# 9. In vivo pharmacokinetics study. Mouse and SD rat models were used to evaluate pharmacokinetic property of NHWD-870. NHWD-870 was administrated […]
# Concentration of drugs in plasma, lung and tumor tissues were measured for the indicated time. […]
# [2] = system: H526 cells; assay: Clonogenic (colony formation) assay, H526; assay type: cell-based, human; conditions: H526, 250 nM, 5 days
# Description: Fig. 2 NHWD-870 inhibited BRD4 phosphorylation and c-MYC expression, and suppressed cell growth. a Representative western blot analysis of p-BRD4 (s484/488), BRD4, c-MYC, and GAPDH after treatment of MDA-MB231, SUM159, A2780 ES-2, and H526 cells with JQ-1 or NHWD-870 at the indicated concentrations for 24 h. GAPDH served as the loading control. Selected from three independent experiments. b MTT assays of H526, A2780, ES-2, and MDA-MB231 cells treated with JQ-1 or NHWD-870 at the indicated concentrations for 5 days. Data are presented as mean ± SEM from three independent experiments. c, d Clonogenic assays of H526, A2780, ES-2 and MDA-MB231 cells treated with 250 nM JQ-1 or NHWD-870 for 5 days. Shown are representative images (c) and quantification of colonies (d). […] Shown are representative images (e) and quantification of relative colony sizes (f). Scale bar, 50 μm. Data are presented as mean ± SEM from five independent experiments. p values were calculated using two-tailed, unpaired t tests in this figure. **p < 0.01; ***p < 0.001. Source data are provided as a Source Data file. […]
# 5. Colony formation assay. Cells were seeded in 6-well plates at 3,000 cells/well […]
# every week. […] Colony numbers were calculated with imageJ version
# [3] = male, BALB/c nude, plasma, IV 1.75 mg/kg
# [4] = male, BALB/c nude, plasma, PO 5 mg/kg
smiles,measurement,setting,value
Cc1nnn(C)c1-c1cnc2c3c4cnn(C)c4ccc3n([C@H](c3ccccc3)C3CCOCC3)c2c1 [NHWD-870],AUCExtrap,[1]; IV 1.75 mg/kg,3.87±2.125%
same,T1/2,"[1]; IV 1.75 mg/kg, 1.75 mg/kg",1.7 h
same,Plasma concentration,"[1]; IV 1.75 mg/kg, 5 min, individual mice, 1.75 mg/kg",547 ng/mL and 518 ng/mL
same,Plasma concentration,"[1]; IV 1.75 mg/kg, 0.25 h, individual mice, 1.75 mg/kg",431 ng/mL and 362 ng/mL
same,Plasma concentration,"[1]; IV 1.75 mg/kg, 0.5 h, individual mice, 1.75 mg/kg",399 ng/mL and 272 ng/mL
same,Plasma concentration,"[1]; IV 1.75 mg/kg, 1 h, individual mice, 1.75 mg/kg",295 ng/mL and 262 ng/mL
same,Plasma concentration,"[1]; IV 1.75 mg/kg, 2 h, individual mice, 1.75 mg/kg",281 ng/mL and 264 ng/mL
same,Plasma concentration,"[1]; IV 1.75 mg/kg, 4 h, individual mice, 1.75 mg/kg",215 ng/mL and 197 ng/mL
same,Plasma concentration,"[1]; IV 1.75 mg/kg, 8 h, individual mice, 1.75 mg/kg",41.2 ng/mL and 70.8 ng/mL
same,Plasma concentration,"[1]; IV 1.75 mg/kg, 24 h, individual mice, 1.75 mg/kg",0.876 ng/mL and 1.36 ng/mL
same,AUCExtrap,[1]; PO 5 mg/kg,3.04±0.685%
same,"F (%), oral bioavailability","[1]; PO 5 mg/kg, 5 mg/kg",70%
same,Plasma concentration,"[1]; PO 5 mg/kg, 0.25 h, individual mice, 5 mg/kg",515 ng/mL and 150 ng/mL and 133 ng/mL
same,Plasma concentration,"[1]; PO 5 mg/kg, 0.5 h, individual mice, 5 mg/kg",630 ng/mL and 247 ng/mL and 269 ng/mL
same,Plasma concentration,"[1]; PO 5 mg/kg, 1 h, individual mice, 5 mg/kg",688 ng/mL and 321 ng/mL and 337 ng/mL
same,Plasma concentration,"[1]; PO 5 mg/kg, 2 h, individual mice, 5 mg/kg",593 ng/mL and 414 ng/mL
same,Plasma concentration,"[1]; PO 5 mg/kg, 4 h, individual mice, 5 mg/kg",308 ng/mL and 354 ng/mL
same,Plasma concentration,"[1]; PO 5 mg/kg, 6 h, individual mice, 5 mg/kg",62.6 ng/mL and 255 ng/mL and 189 ng/mL
same,Plasma concentration,"[1]; PO 5 mg/kg, 8 h, individual mice, 5 mg/kg",37.2 ng/mL and 209 ng/mL and 111 ng/mL
same,Plasma concentration,"[1]; PO 5 mg/kg, 24 h, individual mice, 5 mg/kg",0.953 ng/mL
same,AUC(0-inf),[1]; [3],993 ± 280 ng·h/mL
same,AUC(0-t),[1]; [3],939 ± 242 ng·h/mL
same,C0,[1]; [3],630 ± 70.5 ng/mL
same,MRT inf,[1]; [3],2.22 ± 0.42 h
same,clearance,[1]; [3],35 ± 7.45 mL/min/kg
same,Vd,"[1]; male, BALB/c nude, plasma, IV 1.75 mg/kg, read-out: Vdss",4.17 ± 0.42 L/kg
same,AUC(0-inf),[1]; [4],2010 ± 165 ng·h/mL
same,AUC(0-t),[1]; [4],1950 ± 172 ng·h/mL
same,Cmax,[1]; [4],467 ± 74 ng/mL
same,MRT inf,[1]; [4],3.16 ± 0.24 h
same,Tmax,[1]; [4],1.33 ± 0.29 h
same,concentration at 24 h,"[1]; male, BALB/c nude, plasma, PO 5 mg/kg, 24 h, individual mice, read-out: Plasma concentration",1.94 ng/mL
same,half-life,"[1]; male, BALB/c nude, plasma, iv, 1.75 mg/kg, IV 1.75 mg/kg",1.73 ± 0.325 h
same,concentration at 5 min,"[1]; male, BALB/c nude, plasma, iv, 1.75 mg/kg, IV 1.75 mg/kg, 5 min, individual mice, read-out: Plasma concentration",614 ng/mL
same,concentration at 5 min,"[1]; male, BALB/c nude, plasma, iv, 1.75 mg/kg, IV 1.75 mg/kg, 5 min, mean of 3 mice, read-out: Plasma concentration, Mean",560 ng/mL
same,concentration at 0.25 h,"[1]; male, BALB/c nude, plasma, iv, 1.75 mg/kg, IV 1.75 mg/kg, 0.25 h, individual mice, read-out: Plasma concentration",491 ng/mL
same,concentration at 0.25 h,"[1]; male, BALB/c nude, plasma, iv, 1.75 mg/kg, IV 1.75 mg/kg, 0.25 h, mean of 3 mice, read-out: Plasma concentration, Mean",428 ng/mL
same,concentration at 0.5 h,"[1]; male, BALB/c nude, plasma, iv, 1.75 mg/kg, IV 1.75 mg/kg, 0.5 h, individual mice, read-out: Plasma concentration",388 ng/mL
same,concentration at 0.5 h,"[1]; male, BALB/c nude, plasma, iv, 1.75 mg/kg, IV 1.75 mg/kg, 0.5 h, mean of 3 mice, read-out: Plasma concentration, Mean",353 ng/mL
same,concentration at 1 h,"[1]; male, BALB/c nude, plasma, iv, 1.75 mg/kg, IV 1.75 mg/kg, 1 h, individual mice, read-out: Plasma concentration",417 ng/mL
same,concentration at 1 h,"[1]; male, BALB/c nude, plasma, iv, 1.75 mg/kg, IV 1.75 mg/kg, 1 h, mean of 3 mice, read-out: Plasma concentration, Mean",325 ng/mL
same,concentration at 2 h,"[1]; male, BALB/c nude, plasma, iv, 1.75 mg/kg, IV 1.75 mg/kg, 2 h, individual mice, read-out: Plasma concentration",362 ng/mL
same,concentration at 2 h,"[1]; male, BALB/c nude, plasma, iv, 1.75 mg/kg, IV 1.75 mg/kg, 2 h, mean of 3 mice, read-out: Plasma concentration, Mean",302 ng/mL
same,concentration at 4 h,"[1]; male, BALB/c nude, plasma, iv, 1.75 mg/kg, IV 1.75 mg/kg, 4 h, individual mice, read-out: Plasma concentration",190 ng/mL
same,concentration at 4 h,"[1]; male, BALB/c nude, plasma, iv, 1.75 mg/kg, IV 1.75 mg/kg, 4 h, mean of 3 mice, read-out: Plasma concentration, Mean",201 ng/mL
same,concentration at 8 h,"[1]; male, BALB/c nude, plasma, iv, 1.75 mg/kg, IV 1.75 mg/kg, 8 h, individual mice, read-out: Plasma concentration",50.2 ng/mL
same,concentration at 8 h,"[1]; male, BALB/c nude, plasma, iv, 1.75 mg/kg, IV 1.75 mg/kg, 8 h, mean of 3 mice, read-out: Plasma concentration, Mean",54.1 ng/mL
same,concentration at 24 h,"[1]; male, BALB/c nude, plasma, iv, 1.75 mg/kg, IV 1.75 mg/kg, 24 h, individual mice, read-out: Plasma concentration",0.937 ng/mL
same,concentration at 24 h,"[1]; male, BALB/c nude, plasma, iv, 1.75 mg/kg, IV 1.75 mg/kg, 24 h, mean of 3 mice, read-out: Plasma concentration, Mean",1.06 ng/mL
same,half-life,"[1]; male, BALB/c nude, plasma, po, 5 mg/kg, PO 5 mg/kg",1.29 ± 0.055 h
same,concentration at 0.25 h,"[1]; male, BALB/c nude, plasma, po, 5 mg/kg, PO 5 mg/kg, 0.25 h, mean of 3 mice, read-out: Plasma concentration, Mean",266 ng/mL
same,concentration at 0.5 h,"[1]; male, BALB/c nude, plasma, po, 5 mg/kg, PO 5 mg/kg, 0.5 h, mean of 3 mice, read-out: Plasma concentration, Mean",382 ng/mL
same,concentration at 1 h,"[1]; male, BALB/c nude, plasma, po, 5 mg/kg, PO 5 mg/kg, 1 h, mean of 3 mice, read-out: Plasma concentration, Mean",449 ng/mL
same,concentration at 2 h,"[1]; male, BALB/c nude, plasma, po, 5 mg/kg, PO 5 mg/kg, 2 h, individual mice, read-out: Plasma concentration",528 ng/mL
same,concentration at 2 h,"[1]; male, BALB/c nude, plasma, po, 5 mg/kg, PO 5 mg/kg, 2 h, mean of 3 mice, read-out: Plasma concentration, Mean",512 ng/mL
same,concentration at 4 h,"[1]; male, BALB/c nude, plasma, po, 5 mg/kg, PO 5 mg/kg, 4 h, individual mice, read-out: Plasma concentration",299 ng/mL
same,concentration at 4 h,"[1]; male, BALB/c nude, plasma, po, 5 mg/kg, PO 5 mg/kg, 4 h, mean of 3 mice, read-out: Plasma concentration, Mean",320 ng/mL
same,concentration at 6 h,"[1]; male, BALB/c nude, plasma, po, 5 mg/kg, PO 5 mg/kg, 6 h, mean of 3 mice",169 ng/mL
same,concentration at 8 h,"[1]; male, BALB/c nude, plasma, po, 5 mg/kg, PO 5 mg/kg, 8 h, mean of 3 mice, read-out: Plasma concentration, Mean",119 ng/mL
same,concentration at 24 h,"[1]; male, BALB/c nude, plasma, po, 5 mg/kg, PO 5 mg/kg, 24 h, individual mice, read-out: Plasma concentration",1.06 ng/mL
same,concentration at 24 h,"[1]; male, BALB/c nude, plasma, po, 5 mg/kg, PO 5 mg/kg, 24 h, mean of 3 mice, read-out: Plasma concentration, Mean",1.32 ng/mL
same,bioavailability,"[1]; male, BALB/c nude, plasma, po, 5 mg/kg, PO 5 mg/kg, read-out: F (%), oral bioavailability",70.8 ± 5.8%
same,Clone Number (clonogenic assay),[2],75 and 84 and 92 and 65 and 76
